# From patent publication US6710017B2, “Compositions and methods for controlling algae in recirculating water systems” (Avecia, Inc., priority 2000, dated 2004)
# Like-named read-outs stand apart in the source and are kept apart here.
# Columns and labels:
# [1] = Margin of exposure versus NOEL (estimated total daily dose to a child in a swimming pool); details: for Margin of Exposure vs NOEL (Target > 100): herbicides, Table A, ratio of NOEL to estimated daily dose, 10 ppm in pool water, child 22 kg, 3 hours per day; for Margin of Exposure vs NOEL: agricultural fungicides, Table B
# Procedure: The herbicide preferably has a margin of exposure versus no observed effect level (“NOEL”) value of greater than 10, more preferably greater than 50, especially greater than 80, and more especially greater than 99. The margin of exposure versus NOEL is determined by estimating the total daily dose of the herbicide to a child in a swimming pool and determining the ratio of the NOEL to this. The total daily exposure may be estimated as follows. Oral exposure is estimated by assuming that the swimmer is in the water 3 hours per day, and that the swimmer ingests 50 milliliters of pool water per hour of swimming. It is also assumed that the herbicide will be present in the pool water at a concentration of 10 parts per million, equivalent to 10 milligrams per liter of pool water. The daily oral exposure is therefore estimated as the product of the swimming duration, the ingestion rate, and the concentration in the pool water. Dermal exposure is estimated by assuming the swimmer is in the water 3 hours per day, that the total body surface area, 8800 square centimeters, is immersed in the water, and that the herbicide permeates the skin at a rate, expressed in centimeters per hour, predicted by a model for skin permeation based on chemical structure, the Skinperm model, developed by W. F. ten Berge. A short description of the Skinperm model, can be accessed at: http://home.wxs.nl/˜wtberge/, which is incorporated herein by reference. The daily dermal exposure is then estimated as the product of the permeation rate, the concentration of the herbicide in the pool water (expressed in milligrams per cubic centimeter), the swimming duration, and the total body surface area. The total daily exposure is estimated as the sum of the daily oral and daily dermal exposure. The daily dose, expressed in milligrams per kilogram bodyweight per day, is then estimated as the total daily exposure divided by an assumed body weight of 22 kilograms.
# [2] = Procedure: The margin of exposure versus NOEL is determined by estimating the total daily dose of the herbicide to a child in a swimming pool and determining the ratio of the NOEL to this. The total daily exposure may be estimated as follows. Oral exposure is estimated by assuming that the swimmer is in the water 3 hours per day, and that the swimmer ingests 50 milliliters of pool water per hour of swimming. It is also assumed that the herbicide will be present in the pool water at a concentration of 10 parts per million, equivalent to 10 milligrams per liter of pool water. The daily oral exposure is therefore estimated as the product of the swimming duration, the ingestion rate, and the concentration in the pool water. Dermal exposure is estimated by assuming the swimmer is in the water 3 hours per day, that the total body surface area, 8800 square centimeters, is immersed in the water, and that the herbicide permeates the skin at a rate, expressed in centimeters per hour, predicted by a model for skin permeation based on chemical structure, the Skinperm model, developed by W. F. ten Berge. A short description of the Skinperm model, can be accessed at: http://home.wxs.nl/˜wtberge/, which is incorporated herein by reference. The daily dermal exposure is then estimated as the product of the permeation rate, the concentration of the herbicide in the pool water (expressed in milligrams per cubic centimeter), the swimming duration, and the total body surface area. The total daily exposure is estimated as the sum of the daily oral and daily dermal exposure. The daily dose, expressed in milligrams per kilogram bodyweight per day, is then estimated as the total daily exposure divided by an assumed body weight of 22 kilograms.
# The margin of exposure versus RfD is determined by estimating the total daily dose of the herbicide to a child in a swimming pool, as described above, and determining the ratio of the RfD to this (i.e. margin of exposure/RfD).
# [3] = test system: mustard algae; test: Remedial laboratory study on algae, change in turbidity; details: for Change in Turbidity at active agent (ppm) five days post treatment: 5 ppm: 5 ppm active ingredient; for Change in Turbidity at active agent (ppm) five days post treatment: 5 ppm / Change in Turbidity at active agent (ppm) five days post treatment: 10 ppm: initial absorbance 0.10; for Change in Turbidity at active agent (ppm) five days post treatment: 5 ppm / Change in Turbidity at active agent (ppm) five days post treatment: 10 ppm / comments (Remedial Algae Control) / water turbidity: Table 2; for Change in Turbidity at active agent (ppm) five days post treatment: 10 ppm: 10 ppm active ingredient; for water turbidity: indicating killing of the mustard algae; for Turbidity @ 5 ppm active ingredient (Change in Turbidity at five days post treatment) / Turbidity @ 10 ppm active ingredient (Change in Turbidity at five days post treatment): Table 4
# [4] = test system: mustard algae; test: Preventative laboratory study on algae, visual growth score; details: for Score @ ppm active agent: 0: 0 ppm; for Score @ ppm active agent: 0 / Score @ ppm active agent: 10 / Score @ ppm active agent: 15 / Score @ 10 ppm / Score @ 15 ppm active ingredient: visual score 0 to 4, 10 days; for Score @ ppm active agent: 0 / Score @ ppm active agent: 10 / Score @ ppm active agent: 15: 27° C.; for Score @ ppm active agent: 10 / Score @ 10 ppm: 10 ppm; for Score @ ppm active agent: 15 / Score @ 15 ppm active ingredient: 15 ppm; for Comments (Preventive Algae Control): Table 1; for Score @ 10 ppm / Score @ 15 ppm active ingredient: Table 3
# [5] = herbicides, Table A, 10 ppm in pool water, child 22 kg
compound,measurement,setting,value
"6-chloro-N-methyl-N′-(1-methylethyl)-1,3,5-triazine-2,4-diamine [Norflurazon]",Margin of Exposure vs NOEL (Target > 100),[1],20
same,Margin of Exposure vs. RfD (Target > 1),[2]; [5],0.3
"CCc1cccc(CC)c1N(COC)C(=O)CCl [Alachlor, 2-chloro-2′,6′-diethyl-N-(methoxymethyl) acetanilide]",Margin of Exposure vs NOEL (Target > 100),[1],13
same,Margin of Exposure vs. RfD (Target > 1),[2]; [5],0.1
"CCNc1nc(NC(C)C)nc(SC)n1 [Ametryn, 2-ethylamino-4-isopropylamino-6-methylthio-s-triazine]",Margin of Exposure vs NOEL (Target > 100),[1],25
same,Margin of Exposure vs. RfD (Target > 1),"[2]; human, 3 hours per day, 10 ppm",0.02
"COC(=O)c1ccccc1CS(=O)(=O)NC(=O)Nc1nc(OC)cc(OC)n1 [Bensulfuron ME, Methyl 2-[[[[[(4,6-dimethoxypyrimidin-2-yl)amino]carbonyl]amino]sulfonyl]methyl]-benzoate]",Margin of Exposure vs NOEL (Target > 100),[1],265
same,Margin of Exposure vs. RfD (Target > 1),"[2]; human, 3 hours per day, 10 ppm",2.7
same,Change in Turbidity at active agent (ppm) five days post treatment: 5 ppm,[3],+0.01
same,Change in Turbidity at active agent (ppm) five days post treatment: 10 ppm,[3],0.00
same,comments (Remedial Algae Control),[3],algicidal activity
same,water turbidity,[3],decreased significantly
"CC(C)OC(=O)Nc1cccc(Cl)c1 [Chlopropham, Isopropyl 3-chlorocarbanilate; isopropyl 3-chlorophenylcarbamate]",Margin of Exposure vs NOEL (Target > 100),[1],67
same,Margin of Exposure vs. RfD (Target > 1),"[2]; human, 3 hours per day, 10 ppm",0.7
"COc1nc(C)nc(NC(=O)NS(=O)(=O)c2ccccc2Cl)n1 [Chlorsulfuron, 2-chloro-N-[[(4-methoxy-6-methyl-1,3,5-triazin-2-yl)amino]carbonyl]benzenesulfonamide]",Margin of Exposure vs NOEL (Target > 100),[1],67
same,Margin of Exposure vs. RfD (Target > 1),"[2]; human, 3 hours per day, 10 ppm",0.7
"CC1(C)CON(Cc2ccccc2Cl)C1=O [Clomazone, 2-[(2-chlorophenyl)methyl]-4,4-dimethyl-3-isoxazolidinone]",Margin of Exposure vs NOEL (Target > 100),[1],41
same,Margin of Exposure vs. RfD (Target > 1),"[2]; human, 3 hours per day, 10 ppm",0.02
same,Change in Turbidity at active agent (ppm) five days post treatment: 5 ppm,[3],+0.10
same,Change in Turbidity at active agent (ppm) five days post treatment: 10 ppm,[3],+0.10
same,Score @ ppm active agent: 0,[4],4
same,Score @ ppm active agent: 10,[4],4
same,Score @ ppm active agent: 15,[4],3
same,Comments (Preventive Algae Control),[4],heavy growth
"Cc1cc(C2CC2)nc(Nc2ccccc2)n1 [Cyprodinil, 4-cyclopropyl-6-methyl-N-phenyl-2-pyrimidinamine]",Margin of Exposure vs NOEL,[1],50
same,Margin of Exposure vs. RfD,"[2]; human, 3 hours per day, 10 ppm",0.5
"COc1ccc(C(=CC(=O)N2CCOCC2)c2ccc(Cl)cc2)cc1OC [Dimethomorph, (E,Z)-4-[3-(4-chlorophenyl)-3-(3,4-dimethoxyphenyl)acryloyl]morpholine]",Margin of Exposure vs NOEL,[1],88
same,Margin of Exposure vs. RfD,"[2]; human, 3 hours per day, 10 ppm",0.8
"CN(C)c1nc(=O)n(C2CCCCC2)c(=O)n1C [Hexazinone, 3-cyclohexyl-6-(dimethylamino)-1-methyl-1,3,5-triazine-2,4(1H,3H)-dione]",Margin of Exposure vs NOEL (Target > 100),[1],63
same,Margin of Exposure vs. RfD (Target > 1),"[2]; human, 3 hours per day, 10 ppm",0.6
same,Change in Turbidity at active agent (ppm) five days post treatment: 5 ppm,[3],−0.03
same,Change in Turbidity at active agent (ppm) five days post treatment: 10 ppm,[3],−0.03
same,comments (Remedial Algae Control),[3],algicidal activity
same,water turbidity,[3],decreased significantly
"CCc1cnc(C2=NC(C)(C(C)C)C(=O)N2)c(C(=O)O)c1 (stereo not drawn) [Imazethapyr, 2-[4,5-dihydro-4-methyl-4-(1-methylethyl)-5-oxo-1H-imidazol-2-yl]-5ethyl-3-pyridinecarboxylic acid]",Margin of Exposure vs NOEL (Target > 100),[1],3333
same,Margin of Exposure vs. RfD (Target > 1),"[2]; human, 3 hours per day, 10 ppm",3.3
"CC(C)NC(=O)N1CC(=O)N(c2cc(Cl)cc(Cl)c2)C1=O [Iprodione, 3-(3,5-dichlorophenyl)-N-(1-methylethyl)-2,4-dioxo-1-imidazolidinecarboxamide]",Margin of Exposure vs NOEL,[1],81
same,Margin of Exposure vs. RfD,"[2]; human, 3 hours per day, 10 ppm",0.3
"COC(=O)c1ccccc1S(=O)(=O)NC(=O)Nc1nc(C)nc(OC)n1 [Metsulfuron-methyl, Methyl 2-[[[[(4-methoxy-6-methyl-1,3,5-triazin-2-yl)amino]carbonyl]amino]sulfonyl]benzoate]",Margin of Exposure vs NOEL (Target > 100),[1],333
same,Margin of Exposure vs. RfD (Target > 1),"[2]; human, 3 hours per day, 10 ppm",3.3
same,Change in Turbidity at active agent (ppm) five days post treatment: 5 ppm,[3],+0.09
same,Change in Turbidity at active agent (ppm) five days post treatment: 10 ppm,[3],+0.06
same,comments (Remedial Algae Control),[3],Algistatic. More
"CCSC(=O)N1CCCCCC1 [Molinate, S-ethyl hexahydro-1H-azepine-1-carbothioate]",Margin of Exposure vs NOEL (Target > 100),[1],3
same,Margin of Exposure vs. RfD (Target > 1),[2]; [5],0.03
"CSc1nc(NC(C)C)nc(NC(C)C)n1 [Prometryn, N,N′-bis(1-methylethyl)-6-(methylthio)-1,3,5-triazine-2,4-diamine]",Margin of Exposure vs NOEL (Target > 100),[1],50
same,Margin of Exposure vs. RfD (Target > 1),"[2]; human, 3 hours per day, 10 ppm",0.1
"CCC(=O)Nc1ccc(Cl)c(Cl)c1 [Propanil, N-(3,4-dichlorophenyl)propanamide]",Margin of Exposure vs NOEL (Target > 100),[1],67
same,Margin of Exposure vs. RfD (Target > 1),[2]; [5],0.1
same,Change in Turbidity at active agent (ppm) five days post treatment: 5 ppm,[3],−0.02
same,Change in Turbidity at active agent (ppm) five days post treatment: 10 ppm,[3],−0.03
same,comments (Remedial Algae Control),[3],algicidal activity
same,water turbidity,[3],decreased significantly
"CCCC(=NOCC)C1=C(O)CC(CC(C)SCC)CC1=O (stereo not drawn) [Sethoxydim, 2-[1-(ethoxyimino)butyl]-5-[2-(ethylthio)propyl]-3-hydroxy-2-cyclohexen-1-one]",Margin of Exposure vs NOEL (Target > 100),[1],119
same,Margin of Exposure vs. RfD (Target > 1),[2]; [5],12
"C=CC1(C)OC(=O)N(c2cc(Cl)cc(Cl)c2)C1=O (stereo not drawn) [Vinclozolin, 3-(3,5-dichlorophenyl)-5-methyl-5-vinyl-1,3-oxazolidine-2,4-dione]",Margin of Exposure vs NOEL,[1],33
same,Margin of Exposure vs. RfD,"[2]; human, 3 hours per day, 10 ppm",0.3
CCc1cccc(C)c1N(C(=O)CCl)C(C)COC (stereo not drawn) [metolachlor],Change in Turbidity at active agent (ppm) five days post treatment: 5 ppm,[3],+0.12
same,Change in Turbidity at active agent (ppm) five days post treatment: 10 ppm,[3],+0.06
same,comments (Remedial Algae Control),[3],Algistatic. More
same,Score @ ppm active agent: 0,[4],1
same,Score @ ppm active agent: 10,[4],1
same,Score @ ppm active agent: 15,[4],1
same,Comments (Preventive Algae Control),[4],very little growth
Poly(oxyethylene(dimethylimino)-ethylene(dimethylimino)-ethylene dichloride) [Polyquat],Change in Turbidity at active agent (ppm) five days post treatment: 5 ppm,[3],+0.29
same,Turbidity @ 5 ppm active ingredient (Change in Turbidity at five days post treatment),[3],+0.29
same,Change in Turbidity at active agent (ppm) five days post treatment: 10 ppm,[3],+0.28
same,Turbidity @ 10 ppm active ingredient (Change in Turbidity at five days post treatment),[3],+0.28
same,Score @ ppm active agent: 0,[4],2
same,Score @ ppm active agent: 10,[4],2
same,Score @ 10 ppm,[4],2
same,Score @ ppm active agent: 15,[4],2
same,Score @ 15 ppm active ingredient,[4],2
same,Comments (Preventive Algae Control),[4],Bloom noticeable
alkyl dimethyl benzylammonium chloride [ADBAC],Change in Turbidity at active agent (ppm) five days post treatment: 5 ppm,[3],+0.13
same,Turbidity @ 5 ppm active ingredient (Change in Turbidity at five days post treatment),[3],+0.13
same,Change in Turbidity at active agent (ppm) five days post treatment: 10 ppm,[3],+0.03
same,Turbidity @ 10 ppm active ingredient (Change in Turbidity at five days post treatment),[3],+0.03
same,control of the mustard algae,[3]; at 5× and 10× the EPA allowable dose,no control
same,Score @ ppm active agent: 0,[4],3
same,Score @ ppm active agent: 10,[4],3
same,Score @ 10 ppm,[4],3
same,Score @ ppm active agent: 15,[4],0
same,Score @ 15 ppm active ingredient,[4],0
